d = 2'-deoxy (DNA); r = 2'-OH (RNA)
Experiments:
Assay type in all cases: cell-based
[1] = test system: human primary lung small airway epithelial cells (HSAEC); assay: FACS detection of intercellular delivery of oligos in HSAEC; details: for cells with intercellular signals of the oligos, Arginine compared with lipofectamine (FACS): 10 ul/well Arginine vs lipofectamine
[2] = test system: primary human lung bronchial/tracheal epithelial cells; assay: Fluorescence microscopy of oligo entry into HBTEC; details: 24-48 hours, fluorescent filter 10x/20x, delivery per FIG. 20
[3] = test system: primary human lung small airway epithelial cells; assay: Fluorescence microscopy of oligo entry into HSAEC; details: 24-48 hours, fluorescent filter 10x/20x, lipofectamine, poly-arginine or no reagent per FIG. 1
[4] = test system: Human Primary Nasal Epithelial Cells; assay: Fluorescence microscopy of oligo entry into HNEpC; details: 24-48 hours, fluorescent filter 10x/20x, delivery per FIG. 35

Substance	cells with intercellular signals of the oligos, Arginine compared with lipofectamine (FACS) [1]	intensities of fluorescent signals in cells (FACS) vs no-treatment control ([1]; Arginine only (10 ul/well))	intensities of fluorescent signals in cells (FACS) vs no-treatment control ([1]; with lipofectamine)	entry into cells, microscopic analysis [2]	entry into cells, microscopic analysis [3]	entry into cells, microscopic analysis [4]	intensities of fluorescent signals in cells (FACS) vs no-treatment control ([1]; without lipofectamine or Arginine reagents)
VS_DsiRNA-Cy5: DsiRNA SEQ ID NOs: 23 & 24, target N-protein, Cy5 labeled (chain 1 AAACUAAAAUGUCUGAUAAUGGACC; chain 2 GGUCCAUUAUCAGACAUUUUAGUUUGU; chain 1: sugars from the 5' end r23 d2, backbone not given here; chain 2: chemistry not given here; Cy5 label)	more cells with intercellular signals of the oligos	significantly higher	significantly higher	entry	entry	can enter epithelial cells	–
TGTTAATTGGAACGCCTTGTC (Cy3 label, position not given here) [VS_ASO_2-Cy3]	more cells with intercellular signals of the oligos	significantly higher	significantly higher	–	–	–	–
TGTTAATTGGAACGCCTTGTC (FANA modified, pattern not given here, FITC label) [VS_ASO_1-FANA-FITC]	–	–	–	entry	entry	can enter epithelial cells	significantly stronger
